Legend:
TAS2R20 = assay: RT-qPCR gene expression of TAS2R20 in HGT-1 cells; type: cell-based, human; conditions: VAPFPEVF 17.5 µM, YFYPEL 0.03 µM, YQEPVLGPVRGPFPIIV 0.4 µM, normalized to PPIA and GAPDH and untreated cells, mean, n = 3–5
Protocol: (§1) For mRNA expression analysis, 800,000 cells were seeded in a T25 cell culture flask (25 cm^2) 1 day before the experiment. After incubation with 17.5 μM […], 0.03 μM YFYPEL, or 0.4 μM […] for 15, 30, 60, and 120 min, RNA was isolated using the peqGOLD RNA Kit (VWR Peqlab, USA) following the manufacturer’s protocol. Determination of RNA concentration (A260/A280 between 2.03 and 2.09) was performed on a NanoDrop One^c (Thermo Fisher Scientific Inc., USA). RNA integrity number (RIN 9.9–10.0, version 2.6, assay class Eukaryote Total RNA Nano) was analyzed using a 2100 Bioanalyzer (Agilent Technologies, USA). Removal of gDNA and synthesis of cDNA were performed using the iScript gDNA Clear cDNA Synthesis Kit (BioRad, Feldkirchen, Germany) following the manufacturer’s protocol. Real-time-qPCR (RT-qPCR) was performed with 50 ng cDNA amplified with SsoAdvanced Universal SYBR Green Supermix (Bio-Rad Laboratories, Inc., USA). The sequences of the forward and reverse primers of the 25 TAS2Rs were taken from Liszt et al.([13]) (Supporting Information Table-SI 3). Verified primers for the TAS1Rs (TAS1R1: qHsaCID0013443; TAS1R2: qHsaCID0016106; TAS1R3: qHsaCED0002321) and for MAPK1 (qHsaCEP0050000) were obtained from Bio-Rad Laboratories. PPIA[37] and GAPDH[38] were used as reference genes. The effects of the peptides on gene expression were analyzed in comparison to untreated control cells.

TAS2R46 = assay: RT-qPCR gene expression of TAS2R46 in HGT-1 cells; type: cell-based, human; conditions: VAPFPEVF 17.5 µM, YFYPEL 0.03 µM, YQEPVLGPVRGPFPIIV 0.4 µM, normalized to PPIA and GAPDH and untreated cells, mean, n = 3–5
Protocol: as §1

pepsin = assay: In vitro gastric digestion of casein with targeted UHPLC-MS/MS-MRM quantitation of peptides; type: in vitro ADME, porcine; conditions: 37 °C, n = 4; for degradation of the peptide during further in vitro gastric digestion: up to 6 h
Protocol: The in vitro digestion was based on the Nature protocol established by Brodkorb et al.([30]) For this, simulated salivary fluid (SSF, containing 15.1 mM KCl, 3.7 mM KH2PO4, 13.6 mM NaHCO3, 0.15 mM MgCl2(H2O)6, 0.06 mM (NH4)2CO3, 1.1 mM HCl, and 1.5 mM CaCl2(H2O)2) and simulated gastric fluid (SGF, containing 6.9 mM KCl, 0.9 mM KH2PO4, 25.0 mM NaHCO3, 47.2 mM NaCl, 0.12 mM MgCl2(H2O)6, 0.5 mM (NH4)2CO3, 15.6 mM HCl, and 0.15 mM CaCl2(H2O)2) were prepared. A total amount of 100 mg casein was suspended in 3 mL of SSF and incubated for 5 min at 37 °C in the tube rotator. After taking a sample (500 μL, t = 0 h), 2 mL of SGF was added and the pH was adjusted to 3 with 100 μL of HCl (1 M). After addition of 125 μL of pepsin solution (80,000 U/mL in 10 mM HCl), 275 μL of H2O was added to fill up to 5 mL. This was followed by further incubation at 37 °C in a tube rotator for 6 h. 500 μL of samples was taken at 0.25, 0.5, 0.75, 1, 2, 3, 4, 5, and 6 h, respectively. The samples were frozen in liquid nitrogen and stored at −80 °C until further analysis. For MS experiments, all samples were diluted 1:1 with 10% MeCN.
All targeted proteomics LC–MS/MS measurements were performed using a Sciex ExionLC AC (Sciex, Darmstadt, Germany) coupled to a 6500+ QTrap LC–MS/MS system (Sciex, Darmstadt, Germany) operating in the positive electrospray ionization mode. Data acquisition and instrumentation control were performed with AnalystTF software (v 1.7.1; Sciex, Darmstadt, Germany). Separation was performed using a 100 × 2.1 mm, 1.7 μm, Kinetex C18 column (Phenomenex, Aschaffenburg, Germany) with a guard column of the same type with 0.1% aqueous formic acid and acetonitrile containing 0.1% formic acid at a flow rate of 0.25 mL/min. The gradient was based on the following scheme: 0 min, 15% B; 7 min, 40% B; 7.5 min, 98% B; 10.5 min, 98% B; 10.8 min, 15% B; and 15 min, 15% B. The column oven temperature was set at 40 °C, and the injection volume was 1 μL per sample. For MS/MS measurements, the same parameters were used for all samples (ion spray voltage […], source temperature 450 °C, nebulizing gas 60 psi, and heating gas 30 psi). Nitrogen was set to 35 psi and served as a curtain gas to effectively dissolve the ions. To optimize the parameters DP, CE, and collision cell exit potential for each peptide and transition (Supporting Information Table-SI 2), standard solutions of the five synthesized peptides were injected directly into the MS ion source. Ionization parameters were optimized in positive ESI mode using AnalystTF software (v 1.7.1; Sciex, Darmstadt, Germany). For the preparation of the calibration curves, five peptides were dissolved individually in D2O (600 μL) and the concentration of the stock solutions was determined by qNMR.[35] For each peptide, seven calibration solutions (0.5, 1, 5, 10, 50, 100, and 200 μM) were diluted in 5% MeCN from these stock solutions. The data were analyzed using MultiQuant software (v 3.0.3; Sciex, Darmstadt, Germany).

TAS2R3 = assay: RT-qPCR gene expression of TAS2R3 in HGT-1 cells; type: cell-based, human; conditions: VAPFPEVF 17.5 µM, YFYPEL 0.03 µM, YQEPVLGPVRGPFPIIV 0.4 µM, normalized to PPIA and GAPDH and untreated cells, mean, n = 3–5
Protocol: as §1

TAS2R19 = assay: RT-qPCR gene expression of TAS2R19 in HGT-1 cells; type: cell-based, human; conditions: VAPFPEVF 17.5 µM, YFYPEL 0.03 µM, YQEPVLGPVRGPFPIIV 0.4 µM, normalized to PPIA and GAPDH and untreated cells, mean, n = 3–5
Protocol: as §1

TAS2R1 = assay: RT-qPCR gene expression of TAS2R1 in HGT-1 cells; type: cell-based, human; conditions: VAPFPEVF 17.5 µM, YFYPEL 0.03 µM, YQEPVLGPVRGPFPIIV 0.4 µM, normalized to PPIA and GAPDH and untreated cells, mean, n = 3–5
Protocol: as §1

TAS2R14 = assay: RT-qPCR gene expression of TAS2R14 in HGT-1 cells; type: cell-based, human; conditions: VAPFPEVF 17.5 µM, YFYPEL 0.03 µM, YQEPVLGPVRGPFPIIV 0.4 µM, normalized to PPIA and GAPDH and untreated cells, mean, n = 3–5
Protocol: as §1

TAS2R8 = assay: RT-qPCR gene expression of TAS2R8 in HGT-1 cells; type: cell-based, human; conditions: VAPFPEVF 17.5 µM, YFYPEL 0.03 µM, YQEPVLGPVRGPFPIIV 0.4 µM, normalized to PPIA and GAPDH and untreated cells, mean, n = 3–5
Protocol: as §1

Row | degradation of the peptide during further in vitro gastric digestion (pepsin; SGF pH 3 with pepsin) | Substance | change in gene expression of TAS2R20 (TAS2R20; incubation 15 min) | change in gene expression of TAS2R20 (TAS2R20; incubation 30 min) | change in gene expression of TAS2R20 (TAS2R20; incubation 60 min) | change in gene expression of TAS2R20 (TAS2R20; incubation 120 min) | change in gene expression of TAS2R46 (TAS2R46; incubation 15 min) | change in gene expression of TAS2R46 (TAS2R46; incubation 30 min) | change in gene expression of TAS2R46 (TAS2R46; incubation 60 min) | change in gene expression of TAS2R46 (TAS2R46; incubation 120 min) | change in gene expression of TAS2R3 (TAS2R3; incubation 15 min) | change in gene expression of TAS2R3 (TAS2R3; incubation 30 min) | change in gene expression of TAS2R3 (TAS2R3; incubation 60 min) | change in gene expression of TAS2R3 (TAS2R3; incubation 120 min) | change in gene expression of TAS2R19 (TAS2R19; incubation 15 min) | change in gene expression of TAS2R19 (TAS2R19; incubation 30 min) | change in gene expression of TAS2R19 (TAS2R19; incubation 60 min) | change in gene expression of TAS2R19 (TAS2R19; incubation 120 min) | change in gene expression of TAS2R1 (TAS2R1; incubation 15 min) | change in gene expression of TAS2R1 (TAS2R1; incubation 30 min) | change in gene expression of TAS2R1 (TAS2R1; incubation 60 min) | further results
1 | no noticeable degradation | YFYPEL [bitter casein peptide αS1-CN144–149] | 1.37 fold change | 0.93 fold change | 0.94 fold change | 1.16 fold change | 1.70 fold change | 0.73 fold change | 1.01 fold change | 1.30 fold change | 1.54 fold change | 1.08 fold change | 1.19 fold change | 1.34 fold change | 1.60 fold change | 0.82 fold change | 0.79 fold change | 1.05 fold change | 0.36 fold change | 1.03 fold change | 0.55 fold change | change in gene expression of TAS2R1 (TAS2R1; incubation 120 min): 0.73 fold change; change in gene expression of TAS2R14 (TAS2R14; incubation 15 min): 1.11 fold change; change in gene expression of TAS2R14 (TAS2R14; incubation 30 min): 0.92 fold change; change in gene expression of TAS2R14 (TAS2R14; incubation 60 min): 0.99 fold change; change in gene expression of TAS2R14 (TAS2R14; incubation 120 min): 1.21 fold change; change in gene expression of TAS2R8 (TAS2R8; incubation 15 min): 1.62 fold change; change in gene expression of TAS2R8 (TAS2R8; incubation 30 min): 1.90 fold change; change in gene expression of TAS2R8 (TAS2R8; incubation 60 min): 1.87 fold change; change in gene expression of TAS2R8 (TAS2R8; incubation 120 min): 1.69 fold change
2 | no noticeable degradation | VAPFPEVF [bitter casein peptide αS1-CN25–32] | 0.70 fold change | 1.33 fold change | 0.87 fold change | 1.78 fold change | 0.62 fold change | 1.47 fold change | 0.85 fold change | 1.95 fold change | 0.70 fold change | 1.56 fold change | 1.06 fold change | 1.72 fold change | 0.66 fold change | 1.22 fold change | 0.69 fold change | 1.25 fold change | 0.79 fold change | 1.36 fold change | 0.44 fold change | change in gene expression of TAS2R1 (TAS2R1; incubation 120 min): 1.62 fold change; change in gene expression of TAS2R14 (TAS2R14; incubation 15 min): 0.67 fold change; change in gene expression of TAS2R14 (TAS2R14; incubation 30 min): 0.97 fold change; change in gene expression of TAS2R14 (TAS2R14; incubation 60 min): 0.86 fold change; change in gene expression of TAS2R14 (TAS2R14; incubation 120 min): 1.08 fold change; change in gene expression of TAS2R8 (TAS2R8; incubation 15 min): 1.24 fold change; change in gene expression of TAS2R8 (TAS2R8; incubation 30 min): 2.25 fold change; change in gene expression of TAS2R8 (TAS2R8; incubation 60 min): 1.34 fold change; change in gene expression of TAS2R8 (TAS2R8; incubation 120 min): 2.04 fold change

Row | Substance | degradation of the peptide during further in vitro gastric digestion (pepsin; SGF pH 3 with pepsin) | change in gene expression of TAS2R20 (TAS2R20; incubation 15 min) | change in gene expression of TAS2R20 (TAS2R20; incubation 30 min) | change in gene expression of TAS2R20 (TAS2R20; incubation 60 min) | change in gene expression of TAS2R20 (TAS2R20; incubation 120 min) | change in gene expression of TAS2R46 (TAS2R46; incubation 15 min) | change in gene expression of TAS2R46 (TAS2R46; incubation 30 min) | change in gene expression of TAS2R46 (TAS2R46; incubation 60 min) | change in gene expression of TAS2R46 (TAS2R46; incubation 120 min) | change in gene expression of TAS2R3 (TAS2R3; incubation 15 min) | change in gene expression of TAS2R3 (TAS2R3; incubation 30 min) | change in gene expression of TAS2R3 (TAS2R3; incubation 60 min) | change in gene expression of TAS2R3 (TAS2R3; incubation 120 min) | change in gene expression of TAS2R19 (TAS2R19; incubation 15 min) | change in gene expression of TAS2R19 (TAS2R19; incubation 30 min) | change in gene expression of TAS2R19 (TAS2R19; incubation 60 min) | change in gene expression of TAS2R19 (TAS2R19; incubation 120 min) | change in gene expression of TAS2R1 (TAS2R1; incubation 15 min) | change in gene expression of TAS2R1 (TAS2R1; incubation 30 min) | change in gene expression of TAS2R1 (TAS2R1; incubation 60 min) | further results
3 | YQEPVLGPVRGPFPIIV [bitter casein peptide βA1/A2-CN193–209] | continuous cleavage over the 6 h | 0.95 fold change | 1.42 fold change | 1.38 fold change | 1.31 fold change | 0.69 fold change | 1.73 fold change | 1.30 fold change | 1.06 fold change | 1.03 fold change | 1.89 fold change | 1.61 fold change | 1.40 fold change | 0.85 fold change | 1.58 fold change | 1.27 fold change | 1.05 fold change | 0.33 fold change | 0.43 fold change | 1.00 fold change | final concentration after 6 h of in vitro digestion (pepsin; 100 mg casein, SGF pH 3 with pepsin, 6 h, mean): 22.5 µM; highest concentration released during in vitro digestion (pepsin; 100 mg casein, SSF then SGF pH 3 with pepsin, 0–6 h, mean): up to 300.8 μM; change in gene expression of TAS2R1 (TAS2R1; incubation 120 min): 0.84 fold change; change in gene expression of TAS2R14 (TAS2R14; incubation 15 min): 0.85 fold change; change in gene expression of TAS2R14 (TAS2R14; incubation 30 min): 1.08 fold change; change in gene expression of TAS2R14 (TAS2R14; incubation 60 min): 1.03 fold change; change in gene expression of TAS2R14 (TAS2R14; incubation 120 min): 1.08 fold change; change in gene expression of TAS2R8 (TAS2R8; incubation 15 min): 1.39 fold change; change in gene expression of TAS2R8 (TAS2R8; incubation 30 min): 2.45 fold change; change in gene expression of TAS2R8 (TAS2R8; incubation 60 min): 1.87 fold change; change in gene expression of TAS2R8 (TAS2R8; incubation 120 min): 1.93 fold change
